Assay results: patent US20030152523A1, “Pharmaceutical composition for pulmonary delivery” (priority 2000, published 2003)

Legend:
[1] = In-vitro deposition of BDP from dry powder formulations aerosolised via Rotahaler into a twin stage impinger (TSI); format: physicochemical; details: TSI at 60 L/min, drug in lower stage of TSI
Excerpt: It was the aim of the current study to attempt to reduce the hydrophobic interaction that exists between BDP particles. Such interaction induces aggregate formation and potentially limits the fine particle dose available for pulmonary delivery. The objectives were to adsorb hydrophilic polymer to individual drug particles and to prepare a model dry powder formulation containing modified drug and lactose. A suspension of 1% w/v BDP in water containing either 0.05% or 0.1% PVA ((MWt 9-10 kDA) was spray dried to produce particles (volume mean diameter (VMD) 4.2 μm as determined by an Aerosizer time of flight particle sizing apparatus obtained from Amherst Process Instruments, Hadley, Mass., USA) suitable for intended delivery to the lung. The micronised drug (VMD […]) or spray dried drug was blended with lactose in a ratio 1:67.5 parts by weight and the resultant formulations filled into gelatin capsules for arosolisation via a Rotahaler device to a twin stage impinger (TSI) operated at 60 L min^−1. The Fine Particle Dose (FPD) (as determined from by the amount of drug reaching the lower stage of the TSI) was increased from 20.2 μg when micronised drug was employed to 46.7 μg when the lower PVA concentration was employed. […] The concentration of BDP was determined from calibration curves constructed using the standard solutions of BDP. […]

[2] = Particle size analysis by laser diffraction (Malvern 2600); format: physicochemical; details: BDP dispersed in 1% (w/v) span 85 in cyclohexane
Protocol: 3 Particle Size Analysis:
The particle size of both micronised BDP and spray dried BDP was determined in a liquid medium by laser diffraction, according to an independent model, using a Malvern 2600 laser diffraction sizer (Malvern Instruments, Malvern, Worcs, UK). BDP was measured using a 63 mm lens, after dispersion in a solution of 1% (w/v) span 85 in cyclohexane, saturated with the drug. Each sample was measured in triplicate.

Compound: CCC(=O)OCC(=O)[C@@]1(OC(=O)CC)[C@@H](C)C[C@H]2[C@@H]3CCC4=CC(=O)C=C[C@]4(C)[C@@]3(Cl)[C@@H](O)C[C@@]21C [micronised BDP, beclomethasone dipropionate]
- Fine particle dose (FPD) of BDP [1]: 20.2 µg
- Volume mean diameter VMD(GSD) [2]: 5.18 (1.00) μm
